Where a name gives a salt, the structure may show the parent alone. Read-outs that look alike come from different tables or passages of the source.
How the values were obtained:
cytidine deaminase = conditions: 37° C.; for yield of deaminated product (HPLC, crude mixture): 5 hours
Protocol: The reaction was performed at 37° C. during […] and stopped with HCl. Then, the crude reaction was filtered through a 10 KDa membrane, and a portion was diluted and analyzed by HPLC under UV-DAD (ultraviolet-diode array detection). Product identification was performed by comparison to a standard sample.
After 5 hours, the reaction was stopped with HCl and a portion of the reaction was diluted and filtered for HPLC and MS analysis.

adenosine deaminase = target: T1, adenosine deaminase (Homo sapiens, UniProt P00813); conditions: commercially available purified enzyme, analytical conditions; cited from earlier work
T1 sequence (P00813 1-363): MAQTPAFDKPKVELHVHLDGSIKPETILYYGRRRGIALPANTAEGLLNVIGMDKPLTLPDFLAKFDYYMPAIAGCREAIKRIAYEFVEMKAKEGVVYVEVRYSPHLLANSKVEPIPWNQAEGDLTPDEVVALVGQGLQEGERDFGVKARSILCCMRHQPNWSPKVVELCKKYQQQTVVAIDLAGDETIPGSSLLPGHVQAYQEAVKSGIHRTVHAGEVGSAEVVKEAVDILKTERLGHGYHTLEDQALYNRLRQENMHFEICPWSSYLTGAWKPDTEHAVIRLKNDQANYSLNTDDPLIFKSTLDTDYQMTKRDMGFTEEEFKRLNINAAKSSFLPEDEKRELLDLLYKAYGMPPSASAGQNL

[1] = 100 mM substrate, KH2PO4 100 mM pH 7.0, 36-240 AU cytidine deaminase
[2] = 20 mM substrate, KH2PO4 100 mM pH 7.0, 90 AU cytidine deaminase

SMILES: CC(C)OC(=O)[C@H](C)NP(=O)(OC[C@H]1O[C@@H](n2ccc(N)nc2=O)C(F)(F)[C@@H]1O)Oc1ccccc1 (stereo partly drawn) [compound 18, isopropyl ((((2R,3R,5R)-5-(4-amino-2-oxopyrimidin-1 (2H)-yl)-4,4-difluoro-3-hydroxytetrahydrofuran-2-yl)methoxy)(phenoxy)phosphoryl)-L-alaninate]
- yield of deaminated product (HPLC, crude mixture) (cytidine deaminase; [1]): quantitative yield

SMILES: COC(=O)[C@@H](NP(=O)(OC[C@H]1O[C@@H](n2ccc(N)nc2=O)[C@H](O)[C@@H]1O)Oc1ccccc1)C(C)C (stereo partly drawn) [compound 12, methyl ((((2R,3S,4R,5R)-5-(4-amino-2-oxopyrimidin-1 (2H)-yl)-3,4-dihydroxytetrahydrofuran-2-yl)methoxy)(phenoxy)phosphoryl)-L-valinate hydrochloride]
- yield of deaminated product (HPLC, crude mixture) (cytidine deaminase; [2]): > 70%

SMILES: COC(=O)[C@H](CC(C)C)NP(=O)(OC[C@H]1O[C@@H](n2ccc(N)nc2=O)[C@H](O)[C@@H]1O)Oc1ccccc1 (stereo partly drawn) [compound 10, methyl ((((2R,3S,4R,5R)-5-(4-amino-2-oxopyrimidin-1(2H)-yl)-3,4-dihydroxytetrahydrofuran-2-yl)methoxy)(phenoxy)phosphoryl)-L-leucinate hydrochloride]
- yield of deaminated product (HPLC, crude mixture) (cytidine deaminase; [2]): > 70%

SMILES: COC(=O)[C@@H](NP(=O)(OC[C@H]1O[C@@H](n2cnc(N)nc2=O)C[C@@H]1O)Oc1ccccc1)C(C)C (stereo partly drawn) [compound 21, methyl ((((2R,3S,5R)-5-(4-amino-2-oxo-1,3,5-triazin-1(2H)-yl)-3-hydroxytetrahydrofuran-2-yl)methoxy)(phenoxy)phosphoryl)-L-valinate]
- yield of deaminated product (HPLC) (cytidine deaminase; pH 6, 13 mM substrate, KH2PO4 100 mM, 66 AU cytidine deaminase, 24 hours): higher than 90%
- conversion into deaminated product (cytidine deaminase; pH 7, 13 mM substrate, KH2PO4 100 mM, 66 AU cytidine deaminase, 24 hours): quantitatively
- conversion into deaminated product (cytidine deaminase; pH 8, 13 mM substrate, KH2PO4 100 mM, 66 AU cytidine deaminase, 24 hours): quantitatively

SMILES: COC(=O)[C@H](CC(C)C)NP(=O)(OC[C@H]1O[C@@H](n2ccc(N)nc2=O)C(F)(F)[C@@H]1O)Oc1ccccc1 (stereo partly drawn) [compound 16, methyl ((((2R,3R,5R)-5-(4-amino-2-oxopyrimidin-1(2H)-yl)-4,4-difluoro-3-hydroxytetrahydrofuran-2-yl)methoxy)(phenoxy)phosphoryl)-L-leucinate]
- yield of deaminated product (HPLC, crude mixture) (cytidine deaminase; [1]): quantitatively

SMILES: COC(=O)[C@@H](NP(=O)(OC[C@H]1O[C@@H](n2ccc(N)nc2=O)C(F)(F)[C@@H]1O)Oc1ccccc1)C(C)C (stereo partly drawn) [compound 17, methyl ((((2R,3R,5R)-5-(4-amino-2-oxopyrimidin-1 (2H)-yl)-4,4-difluoro-3-hydroxytetrahydrofuran-2-yl)methoxy)(phenoxy)phosphoryl)-L-valinate]
- yield of deaminated product (HPLC, crude mixture) (cytidine deaminase; [1]): quantitative yield

SMILES: Nc1ncnc2c1ncn2[C@H]1C[C@H](O)[C@@H](CO)O1 [deoxyadenosine]
- deamination yield (adenosine deaminase): 59%

SMILES: CC(C)OC(=O)[C@H](C)NP(=O)(OC[C@H]1O[C@@H](n2ccc(N)nc2=O)[C@H](O)[C@@H]1O)Oc1ccccc1 (stereo partly drawn) [compound 14, isopropyl ((((2R,3S,4R,5R)-5-(4-amino-2-oxopyrimidin-1(2H)-yl)-3,4-dihydroxytetrahydrofuran-2-yl)methoxy)(phenoxy)phosphoryl)-L-alaninate hydrochloride]
- yield of deaminated product (HPLC, crude mixture) (cytidine deaminase; [2]): quantitatively

SMILES: COC(=O)[C@H](C)NP(=O)(OC[C@H]1O[C@@H](n2ccc(N)nc2=O)[C@H](O)[C@@H]1O)Oc1ccccc1.Cl (stereo partly drawn) [compound 14-Me, methyl ((((2R,3S,4R,5R)-5-(4-amino-2-oxopyrimidin-1 (2H)-yl)-3,4-dihydroxytetrahydrofuran-2-yl)methoxy)(phenoxy)phosphoryl)-L-alaninate hydrochloride]
- yield of deaminated product (HPLC, crude mixture) (cytidine deaminase; [2]): > 80%

Reference: patent US20180066295A1, “DEAMINATION OF ORGANOPHOSPHORUS-NUCLEOSIDES” (INSTITUT UNIV. DE CIÈNCIA I TECNOLOGIA, S. A., priority 2015, published 2018)
